Data taken from ChEMBL document CHEMBL1275270, “Antioxidant activity of unexplored indole derivatives: synthesis and screening” (Eur J Med Chem, 2010).
The source made the active and inactive calls. No cut-off for these calls is given here.

What was measured:
Format in all cases: functional
[1] = Antioxidant activity assessed as inhibition of singlet oxygen-induced oxidation of DHR by rhodamine 123 staining
[2] = Antioxidant activity assessed as trolox equivalent of peroxyl radical scavenging activity by ORAC assay
[3] = Antioxidant activity assessed as inhibition of nitric oxide-induced oxidation of non-fluorescent DAF-2 by fluorescence assay
[4] = Antioxidant activity assessed as inhibition of H2O2-induced oxidation of lucigenin
[5] = Antioxidant activity assessed as superoxide radical scavenging activity by NBT reduction assay
[6] = Antioxidant activity assessed as inhibition of peroxynitrite anion-induced oxidation of non-fluorescent DHR by rhodamine 123 staining in absence of NaHCO3
[7] = Antioxidant activity assessed as inhibition of peroxynitrite anion-induced oxidation of non-fluorescent DHR by rhodamine 123 staining in presence of NaHCO3
[8] = Antioxidant activity assessed as inhibition of HOCl-induced oxidation of DHR by rhodamine 123 staining

| Compound | IC50 ([1]; read-out: IC50) [µM] | fold change (FC) [2] | IC50 ([3]; read-out: IC50) [µM] | inhibition [4] | Activity [5] | IC50 ([6]; read-out: IC50) [µM] | IC50 [7] [µM] | IC50 [8] [µM] | IC50 [3] | IC50 [6] | IC50 [1] |
| --- | --- | --- | --- | --- | --- | --- | --- | --- | --- | --- | --- |
| CC(C)=CCn1cc(CC(N)C(=O)O)c2ccccc21 (stereo not given) | 841 | 1.05 | 208 | inactive | inactive | 94.7 | 42.4 | 4.13 |  |  |  |
| COC(=O)C(Cc1c(CCC(C)C)[nH]c2ccccc12)N1C(=O)c2ccccc2C1=O (stereo not given) | 750 | 0.97 |  | inactive | inactive |  | 14 | 3.75 | Not Active | Not Active |  |
| CC(C)=CCn1cc(CCN2C(=O)c3ccccc3C2=O)c2ccccc21 |  | inactive |  | inactive | inactive |  | 192 | 6.34 | Not Active | Not Active | Not Active |
| COC(=O)C(Cc1c[nH]c2ccccc12)N1C(=O)c2ccccc2C1=O (stereo not given) | 943 | 1.09 |  | inactive | inactive | 208 | 29.5 | 27.3 | Not Active |  |  |
| COC(=O)[C@H](Cc1c[nH]c2ccccc12)NC(C)=O | 1560 | 1.21 |  | inactive | inactive | 223 | 22.9 | 50 | Not Active |  |  |
| CC(C)=CCc1[nH]c2ccccc2c1CC(N)C(=O)O (stereo not given) |  | 0.48 |  | inactive | inactive |  |  | 4.56 |  |  |  |
| COC(=O)[C@H](Cc1cn(CCCc2ccccc2)c2ccccc12)NC(C)=O | 506 | 0.44 |  | inactive | inactive |  | 142 | 14.2 | Not Active | Not Active |  |
| COC(=O)[C@H](Cc1cn(C/C=C/c2ccccc2)c2ccccc12)NC(C)=O | 971 | 0.44 |  | inactive | inactive | 218 | 36.3 | 67.7 | Not Active |  |  |
| COC(=O)C(Cc1cn(CC=C(C)C)c2ccccc12)N1C(=O)c2ccccc2C1=O (stereo not given) | 2860 | 0.36 |  | inactive | inactive |  | 241 | 34.3 | Not Active | Not Active |  |
| COC(=O)[C@@H](N)Cc1c[nH]c2ccccc12 [TRYPTOPHAN METHYL ESTER] | 1040 | 2.6 |  | inactive | inactive | 47.8 | 13.1 | 9.6 | Not Active |  |  |
| NCCc1c[nH]c2ccccc12 [TRYPTAMINE] | 682 | 1.86 | 672 | inactive | inactive | 31.8 | 10.4 | 6 |  |  |  |
| CC(C)CCn1cc(CCN2C(=O)c3ccccc3C2=O)c2ccccc21 | 1030 | inactive | 1530 | inactive | inactive |  | 237 | 10.6 |  | Not Active |  |
| COC(=O)[C@H](Cc1cn(CC=C(C)C)c2ccccc12)NC(C)=O | 777 | 0.21 | 980 | inactive | inactive | 545 | 162 | 32.8 |  |  |  |
| COC(=O)C(Cc1c(CC=C(C)C)[nH]c2ccccc12)N1C(=O)c2ccccc2C1=O (stereo not given) | 2310 | 0.45 | 239 | inactive | inactive |  | 28.2 | 7.18 |  | Not Active |  |
| O=C1c2ccccc2C(=O)N1CCc1c[nH]c2ccccc12 |  | 1.46 |  | inactive | inactive | 93 | 40.9 | 11.1 | Not Active |  | Not Active |
| N[C@@H](Cc1c[nH]c2ccccc12)C(=O)O [TRYPTOPHAN] | 992 | 2.74 | 1150 | inactive | inactive | 31.9 | 19.2 | 3.5 |  |  |  |
| COC(=O)[C@H](Cc1cn(CCC(C)C)c2ccccc12)NC(C)=O | 718 | 0.28 |  | inactive | inactive | 548 | 315 | 8.35 | Not Active |  |  |
| CC(C)=CCn1cc(CCN)c2ccccc21 | 618 | 0.96 | 1430 | inactive | inactive | 905 | 234 | 26.2 |  |  |  |
